We go through six compounds from patent publication US11254640B2, “N-substituted indoles and other heterocycles for treating brain disorders” (The Regents of the University of California, priority 2019, dated 2022).

Common to all, as to assay type: cell-based
The subject of assay [1] is 5HT2A sensor. The assay is described as follows: 5HT2A sensor assay, agonist mode (sLight1.3s HEK293T stable line). The note with it: percent relative to 5-HT at 100 uM; for 5HT2A Agonist mean @ 100 nM (%): 100 nM compound; for 5HT2A Agonist mean @ 10 μM (%): 10 μM compound; for 5HT2A Agonist mean @ 100 μM (%): 100 μM compound. Summed up: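 Fluorescence change, dFF=(Fsat−Fapo)/Fapo, was taken from membrane images (460 nm excitation) before and after compound addition and scaled as % activation, with the DMSO mean as 0 and the 5HT mean as 100. The cells were sLight1.3s HEK293T in HBSS. Final compound levels were 100 μM, 10 μM and 100 nM in 0.1% DMSO, in triplicate.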

Assay [2] concerns 5HT2A sensor. Kind of assay: 5HT2A sensor assay, antagonist mode (sLight1.3s HEK293T stable line). To be noted: relative to 5-HT at 100 nM; for 5HT2A Antagonist mean @ 100 nM (%): 100 nM compound; for 5HT2A Antagonist mean @ 10 μM (%): 10 μM compound; for 5HT2A Antagonist mean @ 100 μM (%): 100 μM compound. Summed up: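 Inactivation score is computed from membrane dFF as (dFF(compound+5HT)−dFF(5HT))/dFF(5HT), with HBSS-only fluorescence as Fapo. Final concentrations: 5-HT 100 nM added first, then compound at 100 nM, 10 μM or 100 μM in 0.1% DMSO. Triplicates; FITC imaging, 5 fields per well.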

For assay [3], the target named is T1, 5HT2A (Homo sapiens, UniProt P28223).
T1 construct: expressed in transfected cells
T1 sequence (P28223 whole entry): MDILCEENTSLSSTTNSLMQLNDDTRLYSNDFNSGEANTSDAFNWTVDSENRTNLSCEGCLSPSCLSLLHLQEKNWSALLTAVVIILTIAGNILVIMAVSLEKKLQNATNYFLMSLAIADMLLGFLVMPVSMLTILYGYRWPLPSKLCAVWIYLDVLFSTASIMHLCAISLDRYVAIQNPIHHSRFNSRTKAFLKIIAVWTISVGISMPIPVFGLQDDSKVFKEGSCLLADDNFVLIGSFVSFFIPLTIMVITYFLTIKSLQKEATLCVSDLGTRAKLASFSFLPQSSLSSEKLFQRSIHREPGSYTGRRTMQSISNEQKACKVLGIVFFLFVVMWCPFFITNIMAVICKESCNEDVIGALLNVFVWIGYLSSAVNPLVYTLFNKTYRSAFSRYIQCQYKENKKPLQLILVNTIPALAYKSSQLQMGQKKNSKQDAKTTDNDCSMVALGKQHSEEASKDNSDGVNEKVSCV
The assay is described as follows: Calcium flux assay (Calcium secondary messenger pathway). To be noted: agonist mode. Summed up: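 Gq-coupled calcium mobilization in cells stably expressing 5HT2A, loaded 30–60 min at 37 °C with calcium-sensitive dye in HBSS/20 mM Hepes with 2.5 mM probenecid. Compound added 5 s into a 2-min FLIPR Tetra fluorescence read at room temperature; % activity relative to vehicle and maximal control-ligand RFU.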
Background: A change in cytosolic calcium serves as a functional read-out for many receptors and channels.

pEC50: −log10 of the molar value.

Regarding `COc1cccc2c1ccn2CCN(C)C.O=C(O)/C=C/C(=O)O` [Example 3, 2-(4-methoxy-1H-indol-1-yl)-N,N-dimethylethan-1-amine], in assay [1], the “5HT2A Agonist mean @ 100 nM (%)” value is reported as “B (does not activate 5HT2A sensor assay in agonist mode)”, the “5HT2A Agonist mean @ 10 μM (%)” value was “B (does not activate 5HT2A sensor assay in agonist mode)” and the “5HT2A Agonist mean @ 100 μM (%)” value is reported as “B (does not activate 5HT2A sensor assay in agonist mode)”. Further, in assay [2], the “5HT2A Antagonist mean @ 100 nM (%)” value is listed as “A (inhibits 5HT response by >100%)”, the “5HT2A Antagonist mean @ 10 μM (%)” value is listed as “A (inhibits 5HT response by >100%)” and the “5HT2A Antagonist mean @ 100 μM (%)” value was “A (inhibits 5HT response by >100%)”. In addition, in assay [3], the pEC50 was less than 5.00.
As to `COc1ccc2c(ccn2CCN(C)C)c1.O=C(O)/C=C/C(=O)O` [Example 4, 2-(5-methoxy-1H-indol-1-yl)-N,N-dimethylethan-1-amine], in assay [1], the “5HT2A Agonist mean @ 100 nM (%)” value is on record as “B (does not activate 5HT2A sensor assay in agonist mode)”, the “5HT2A Agonist mean @ 10 μM (%)” value was “B (does not activate 5HT2A sensor assay in agonist mode)” and the “5HT2A Agonist mean @ 100 μM (%)” value is reported as “A (activates 5HT2A sensor assay in agonist mode)”. Also, in assay [2], the “5HT2A Antagonist mean @ 100 nM (%)” value was “C (inhibits 5HT response by <75%)”, the “5HT2A Antagonist mean @ 10 μM (%)” value was “B (inhibits 5HT response by 75% to 100%)” and the “5HT2A Antagonist mean @ 100 μM (%)” value is recorded as “B (inhibits 5HT response by 75% to 100%)”. Further, the pEC50 in assay [3] is less than 5.00.
In the case of `COc1ccc2ccn(CCN(C)C)c2c1` [Example 5, 2-(6-methoxy-1H-indol-1-yl)-N,N-dimethylethan-1-amine], in assay [1], the “5HT2A Agonist mean @ 100 nM (%)” value is recorded as “B (does not activate 5HT2A sensor assay in agonist mode)”, the “5HT2A Agonist mean @ 10 μM (%)” value is “B (does not activate 5HT2A sensor assay in agonist mode)” and the “5HT2A Agonist mean @ 100 μM (%)” value is reported as “A (activates 5HT2A sensor assay in agonist mode)”. Besides, in assay [2], the “5HT2A Antagonist mean @ 100 nM (%)” value is “B (inhibits 5HT response by 75% to 100%)”, the “5HT2A Antagonist mean @ 10 μM (%)” value is “B (inhibits 5HT response by 75% to 100%)” and the “5HT2A Antagonist mean @ 100 μM (%)” value is on record as “B (inhibits 5HT response by 75% to 100%)”. Also, in assay [3], the pEC50 is greater than 5.00.
As to `COc1cccc2ccn(CCN(C)C)c12.O=C(O)/C=C/C(=O)O` [Example 6, 2-(7-methoxy-1H-indol-1-yl)-N,N-dimethylethan-1-amine], in assay [1], the “5HT2A Agonist mean @ 100 nM (%)” value is listed as “B (does not activate 5HT2A sensor assay in agonist mode)”, the “5HT2A Agonist mean @ 10 μM (%)” value is on record as “B (does not activate 5HT2A sensor assay in agonist mode)” and the “5HT2A Agonist mean @ 100 μM (%)” value is “B (does not activate 5HT2A sensor assay in agonist mode)”. In assay [2], the “5HT2A Antagonist mean @ 100 nM (%)” value is on record as “A (inhibits 5HT response by >100%)”, the “5HT2A Antagonist mean @ 10 μM (%)” value was “A (inhibits 5HT response by >100%)” and the “5HT2A Antagonist mean @ 100 μM (%)” value was “A (inhibits 5HT response by >100%)”. For the same compound, in assay [3], the pEC50 was greater than 5.00.
Consider `COc1ccc2c(ccn2C[C@@H](C)N(C)C)c1` [Example 59, (R)-1-(5-methoxy-1H-indol-1-yl)-N,N-dimethylpropan-2-amine], for which, in assay [1], the “5HT2A Agonist mean @ 100 nM (%)” value is listed as “B (does not activate 5HT2A sensor assay in agonist mode)”, the “5HT2A Agonist mean @ 10 μM (%)” value is on record as “B (does not activate 5HT2A sensor assay in agonist mode)” and the “5HT2A Agonist mean @ 100 μM (%)” value was “B (does not activate 5HT2A sensor assay in agonist mode)”. Besides, in assay [2], the “5HT2A Antagonist mean @ 100 nM (%)” value is “B (inhibits 5HT response by 75% to 100%)”, the “5HT2A Antagonist mean @ 10 μM (%)” value is on record as “A (inhibits 5HT response by >100%)” and the “5HT2A Antagonist mean @ 100 μM (%)” value was “A (inhibits 5HT response by >100%)”. Also, in assay [3], the negative-log EC50 (pEC50) was less than 5.00.
Take `C[C@H](Cn1ccc2cc(F)ccc21)N(C)C` [Example 60, (R)-1-(5-fluoro-1H-indol-1-yl)-N,N-dimethylpropan-2-amine]: in assay [1], the “5HT2A Agonist mean @ 100 nM (%)” value is recorded as “B (does not activate 5HT2A sensor assay in agonist mode)”, the “5HT2A Agonist mean @ 10 μM (%)” value is reported as “B (does not activate 5HT2A sensor assay in agonist mode)” and the “5HT2A Agonist mean @ 100 μM (%)” value is recorded as “A (activates 5HT2A sensor assay in agonist mode)”. In assay [2], the “5HT2A Antagonist mean @ 100 nM (%)” value is recorded as “C (inhibits 5HT response by <75%)”, the “5HT2A Antagonist mean @ 10 μM (%)” value was “B (inhibits 5HT response by 75% to 100%)” and the “5HT2A Antagonist mean @ 100 μM (%)” value is recorded as “B (inhibits 5HT response by 75% to 100%)”. The pEC50 in assay [3] was less than 5.00.

The pEC50 is −log10 of the EC50, conventionally taken in molar units.
